The values below come from US20250099448A1, “HETEROCYCLIC COMPOUNDS” (Hoffmann-La Roche Inc., priority 2022, published 2025).

The experiment deals with T1, MAGL protein (Homo sapiens, UniProt Q99685).
T1 sequence (Q99685 1-303): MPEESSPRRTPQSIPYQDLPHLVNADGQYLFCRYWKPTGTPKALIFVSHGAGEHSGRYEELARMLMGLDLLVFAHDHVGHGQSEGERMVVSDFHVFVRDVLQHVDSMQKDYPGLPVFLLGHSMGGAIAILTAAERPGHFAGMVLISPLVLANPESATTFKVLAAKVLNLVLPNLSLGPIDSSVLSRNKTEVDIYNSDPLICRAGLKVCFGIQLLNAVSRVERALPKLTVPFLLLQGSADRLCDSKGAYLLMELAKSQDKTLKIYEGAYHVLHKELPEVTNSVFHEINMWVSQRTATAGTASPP
Nature of the experiment: 2-AG assay: MAGL inhibitory activity by hydrolysis of 2-arachidonoylglycerol to arachidonic acid, followed by mass spectrometry. The experiment is classed as biochemical. The conditions noted are these: 8 μM 2-arachidonoylglycerol, 15 min preincubation, 30 min reaction at RT, RapidFire MS readout. A digest of the protocol: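 Activity was measured by RapidFire SPE–triple-quad MS as the ratio of arachidonic acid to d8-arachidonic acid after 2-AG hydrolysis (8 μM substrate, 30 min, RT, acetonitrile quench). Compounds, tested from 12.5 μM down to […], were first preincubated 15 min with MAGL in TRIS/EDTA/Tween-20 buffer containing 2.5% DMSO.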

SMILES strings stand for the structures.

One may read the IC50 as the concentration that inhibits the measured activity by half. Higher therefore signals weaker potency.

For `O=C(N1CCC(c2nn(C[C@H](O)C(F)(F)F)c3ccc(Cl)cc23)CC1)N1CC2(CC(c3nnc(C4CC4)[nH]3)C2)C1` [Example 864], inhibition was half-maximal at 14.3 nM (IC50).

In the case of `O=C(N1CC2(CC(c3nc(C4CC4)n[nH]3)C2)C1)C12CC(Nc3cnc(C(F)(F)F)cn3)(C1)C2` [Example 473, [6-(3-cyclopropyl-1H-1,2,4-triazol-5-yl)-2-azaspiro[3.3]heptan-2-yl]-[3-[[5-(trifluoromethyl)pyrazin-2-yl]amino]-1-bicyclo[1.1.1]pentanyl]methanone], 67.8 nM corresponded to half-maximal inhibition (IC50).

Compound `O=C(N1CC2(CC(Cc3ccc(S(=O)(=O)C(F)(F)F)cc3)C2)C1)N1CC2(CC(c3nc(C4CC4)n[nH]3)C2)C1` [compound 420] showed an IC50 of 0.02 nM.

The compound `Cc1c(CN2CC3(C2)CN(C(=O)N2CC4(CC(c5nnc(C6CC6)[nH]5)C4)C2)C3)cnn1C` [compound 897] gave an IC50 of 308 nM.

As to `O=C(N1CC2(CC(c3nnc(C4(O)CC4)[nH]3)C2)C1)N1CC2(C1)CN(S(=O)(=O)c1ccc(OC(F)(F)F)cc1)C2` [compound 92], the midpoint of inhibition, the IC50, lay at 44 nM.

For `O=C(N1CC2(CC(c3nnc(C4CC4)[nH]3)C2)C1)N1CC2(CN(Cc3cc(F)cc(F)c3)C2)C1` [compound 159], the IC50 was 6.08 nM.

`O=C(N1CC2(CC(Cc3cncc(Cl)c3)C2)C1)N1CC2(CC(c3nnc(C4CC4)[nH]3)C2)C1` [compound 113] returned an IC50 of 0.09 nM.

As to `O=C(N1CC2(CC(c3nc(C4(O)CC4)n[nH]3)C2)C1)N1CC2(CC[C@H](Cc3ccc(S(=O)(=O)C(F)(F)F)cc3)C2)C1` [compound 653], the IC50 was found to be 1 nM.

Turning to `O=C(N1CC2(CC(Cc3ccc(C(F)(F)F)cn3)C2)C1)N1CC2(CC(c3nnc(C4CC4)[nH]3)C2)C1` [compound 110], inhibition was half-maximal at 0.21 nM (IC50).

Compound `CS(=O)(=O)c1cc(C(F)(F)F)ccc1C1CC2(C1)CN(C(=O)N1CC3(CC(c4nnc(C5CC5)[nH]4)C3)C1)C2` [compound 803] displayed an IC50 of 1.39 nM.

`O=C(N1CC2(CC(Cc3ccc4[nH]ncc4n3)C2)C1)N1CC2(CC(c3nc(C4(O)CC4)n[nH]3)C2)C1` [compound 692]: the midpoint of inhibition, the IC50, lay at 20.1 nM.

On to `O=C(N1CC2(CCN(Cc3ccc(C(F)(F)F)cc3F)CC2)C1)N1CC2(CC(c3nnc(C4CC4)[nH]3)C2)C1` [compound 177], for which the concentration for half-maximal inhibition (IC50) turned out to be 0.38 nM.

In turn, `COc1ccccc1S(=O)(=O)N1CC2(CN(C(=O)N3CC4(CC(c5nnc(C6CC6)[nH]5)C4)C3)C2)C1` [compound 108] had an IC50 of 34.1 nM.

For the compound `Cc1cc(C2CC2)nn1-c1ccc(C2CN(C(=O)N3CC4(CC(c5nnc(C6CC6)[nH]5)C4)C3)C2)cc1` [compound 288], the IC50 worked out at 0.19 nM.

On to `O=C(N1CC2(CC(Cc3cc(F)cc(S(=O)(=O)C(F)(F)F)c3)C2)C1)N1CC2(CC(c3nc(C4(O)CC4)n[nH]3)C2)C1` [compound 518], for which the IC50 was 0.22 nM.

In turn, `O=C(N1CC2(CC(Cc3ccc(C(F)(F)F)cc3F)C2)C1)N1CC2(CC(c3nc(C4(F)CC4)n[nH]3)C2)C1` [compound 522] yielded an IC50 of 0.05 nM.

As to `N#Cc1cc(CC2CC3(C2)CN(C(=O)N2CC4(CC(c5nc(C6(O)CC6)n[nH]5)C4)C2)C3)cc(C(F)(F)F)c1` [compound 749], the IC50 worked out at 0.25 nM.

Take `O=C(N1CC(OCc2ccc(C(F)(F)F)cc2F)C1)N1CC2(CC(c3nnc([C@@H](O)C(F)(F)F)[nH]3)C2)C1` (single isomer, unassigned) [Example 388]: half-maximal inhibition (IC50) required 410 nM.

Regarding `O=C(N1CC2(CC(c3nnc(C4CC4)[nH]3)C2)C1)N1CC2(C1)CN(S(=O)(=O)c1ccccc1OC(F)(F)F)C2` [compound 94], the IC50 is 3.88 nM.

`CS(=O)(=O)c1cc(C(F)(F)F)ccc1CN1CC2(C1)CN(C(=O)N1CC3(CC(c4nc(C5CC5)n[nH]4)C3)C1)C2` [compound 889] registered an IC50 of 2.74 nM.

For the compound `O=C(N1CC2(CC(Cc3cnc(C(F)(F)F)cn3)C2)C1)N1CC2(CC(c3nc(C(F)(F)F)n[nH]3)C2)C1` [compound 788], the IC50 amounted to 22.5 nM.

`O=C(N1CC(C23CC(C(F)(F)c4ccc(C(F)(F)F)cc4)(C2)C3)C1)N1CC2(CC(c3nc(C4CC4)n[nH]3)C2)C1` [compound 798] displayed an IC50 of 2.4 nM.

`O=C(N1CC(c2ccc(C3(CO)CC3)cc2)C1)N1CC2(CC(c3nnc(C4CC4)[nH]3)C2)C1` [compound 295] registered an IC50 of 1.41 nM.

`O=C(N1CC(C23CC(c4nnc(C5CC5)o4)(C2)C3)C1)N1CC2(CC(c3nnc(C4CC4)[nH]3)C2)C1` [compound 345] gave an IC50 of 9.15 nM.

In turn, `O=C(N1CC2(CC(c3nc(C4(O)CC4)n[nH]3)C2)C1)N1CC2(CC[C@@H](Cc3cccc(S(=O)(=O)C(F)(F)F)c3)C2)C1` [compound 726] returned a half-inhibitory concentration (IC50) of 0.1 nM.

Compound `CC(C)(C)Cc1nnc(C23CC(C4CN(C(=O)N5CC6(CC(c7nc(C8COC8)n[nH]7)C6)C5)C4)(C2)C3)s1` [compound 800] gave an IC50 of 554 nM.

`O=C(N1CC(NCc2ccc(C(F)(F)F)cc2F)C1)N1CC2(CC(c3nnc(C4CC4)[nH]3)C2)C1` [compound 192] returned an IC50 of 23.2 nM.

`CS(=O)(=O)c1cc(Cl)ccc1CC1CC2(CCN(C(=O)N3CC4(CC(c5nnc(C6CC6)[nH]5)C4)C3)C2)C1` (stereo not shown) [Example 892, [2-(4-chloro-2-mesyl-benzyl)-6-azaspiro[3.4]octan-6-yl]-[6-(5-cyclopropyl-4H-1,2,4-triazol-3-yl)-2-azaspiro[3.3]heptan-2-yl]methanone] yielded an IC50 of 12.3 nM.

Compound `O=C(N1CC2(CC(Cc3cn(CC(F)(F)F)nc3C(F)(F)F)C2)C1)N1CC2(CC(c3nc(C4CC4)n[nH]3)C2)C1` [compound 571] came in with an IC50 of 0.55 nM.

`CS(=O)(=O)c1cccc(CC2CC3(C2)CN(C(=O)N2CC4(CC(c5nnc(C6(O)CC6)[nH]5)C4)C2)C3)c1` [compound 16] had a half-inhibitory concentration (IC50) of 1.51 nM.

`N#Cc1ccc(CC2CC3(C2)CN(C(=O)N2CC4(CC(c5nc(C6(F)CC6)n[nH]5)C4)C2)C3)cc1C(F)(F)F` [compound 569] registered an IC50 of 0.09 nM.

As to `O=C(N1CC2(CC(c3nnc(C4CC4)[nH]3)C2)C1)N1CC2(CCN(Cc3ccc(C(F)(F)F)cn3)C2)C1` [compound 182], the IC50 is 5.91 nM.

The compound `O=C(N1CC(c2ccc(N3CC[C@H](C(F)(F)F)C3)nc2)C1)N1CC2(CC(c3nnc(C4CC4)[nH]3)C2)C1` [compound 267] showed an IC50 of 0.31 nM.

Compound `O=C(N1CC2(CC(Cn3cnc(C(F)(F)F)c3)C2)C1)N1CC2(CC(c3nnc(C4CC4)[nH]3)C2)C1` [compound 63] returned an IC50 of 3.59 nM.

Regarding `NC(=O)[C@@H]1CCCCN1c1ccc(C2CN(C(=O)N3CC4(CC(c5nnc(C6CC6)[nH]5)C4)C3)C2)cc1` [Example 394, (2S)-1-[4-[1-[6-(5-cyclopropyl-4H-1,2,4-triazol-3-yl)-2-azaspiro[3.3]heptane-2-carbonyl]azetidin-3 yl]phenyl]piperidine-2-carboxamide], half-maximal inhibition (IC50) required 1.49 nM.

For the compound `CS(=N)(=O)c1cc(F)ccc1CC1CC2(C1)CN(C(=O)N1CC3(CC(c4nc(C5CC5)n[nH]4)C3)C1)C2` (stereo not shown) [Example 735, [6-(3-cyclopropyl-1H-1,2,4-triazol-5-yl)-2-azaspiro[3.3]heptan-2-yl]-[6-[4-fluoro-2-(methylsulfonimidoyl)benzyl]-2-azaspiro[3.3]heptan-2-yl]methanone], the IC50 came to 2.34 nM.

With `O=C(N1CC2(CCC(Oc3cnc(C(F)(F)F)cn3)CC2)C1)N1CC2(CC(c3nnc(C4CC4)[nH]3)C2)C1` [compound 74], the IC50 came to 0.77 nM.

For the compound `O=C(N1CC(c2ccc(N3CCC(C(F)(F)F)CC3=O)cc2)C1)N1CC2(CC(c3nnc(C4CC4)[nH]3)C2)C1` (single isomer, unassigned) [compound 279], inhibition was half-maximal at 5.16 nM (IC50).

`O=C(N1CC2(CC(c3nnc(C4CC4)[nH]3)C2)C1)N1CC2(CCN(Cc3ccc(C(F)(F)F)nn3)C2)C1` [compound 183] displayed an IC50 of 31.3 nM.

For the compound `COCn1cnc(-c2ccccc2CN2CC3(C2)CN(C(=O)N2CC4(CC(c5nnc(C6CC6)[nH]5)C4)C2)C3)n1` [compound 174], inhibition was half-maximal at 40.7 nM (IC50).

`CNC(=O)c1ccccc1CN1CC2(C1)CN(C(=O)N1CC3(CC(c4nnc(C5CC5)[nH]4)C3)C1)C2` [compound 173] returned an IC50 of 230 nM.

Consider `Cn1ncc(CN2CC3(C2)CN(C(=O)N2CC4(CC(c5nc(C6CC6)n[nH]5)C4)C2)C3)c1S(N)(=O)=O` [compound 580], for which the IC50 worked out at 679 nM.

For `O=C(N1CC2(CC(c3nc(C4CC(F)(F)C4)n[nH]3)C2)C1)N1CC2(CN(Cc3cnc(C(F)(F)F)cn3)C2)C1` [compound 750], the IC50 was 445 nM.

For `O=C(N1CC(Oc2cnc(Cl)c(C3CC3)c2)C1)N1CC2(CC(c3nnc(C4CC4)[nH]3)C2)C1` [compound 328], half-maximal inhibition (IC50) was put at 35.4 nM.

Compound `CS(=O)(=O)c1cc(F)ccc1CC1CC2(C1)CN(C(=O)N1CC3(CC(c4nnc(C5CC5)[nH]4)C3)C1)C2` [compound 24] had an IC50 of 0.7 nM.

As to `N=S(=O)(c1cccc(CC2CC3(C2)CN(C(=O)N2CC4(CC(c5nc(C6(O)CC6)n[nH]5)C4)C2)C3)c1)C(F)(F)F` (stereo not shown) [compound 639], the IC50 is 0.21 nM.

Turning to `N#Cc1cc(C(F)(F)F)ccc1CC1CC2(C1)CN(C(=O)N1CC3(CC(c4nnc(C5CC5)[nH]4)C3)C1)C2` [compound 556], the half-maximal inhibitory concentration (IC50) came out at 0.45 nM.

Regarding `Cc1cc(C23CC(C4CN(C(=O)N5CC6(CC(c7nc(C8CC(F)(F)C8)n[nH]7)C6)C5)C4)(C2)C3)[nH]n1` [compound 975], the IC50 is 1550 nM.

The compound `O=C(N1CC(Oc2ccc(C(F)(F)F)cc2)C1)N1CC2(CC(c3nnc(C4(O)CC4)[nH]3)C2)C1` [compound 323] displayed an IC50 of 12.3 nM.
